Measured values reported in patent US9561289B2, “Peptides for inhibiting tumor growth” (OSPEDALE SAN RAFFAELE SRL, priority 2012, dated 2017).
pKi: −log10 of the molar value. Where a SMILES comes first, the peptide text is derived from it. Bridges are numbered along the chain shown (N, C = ends). [ ]: non-standard residue; d: D form. The star is where a group is joined. X1 = NC(=O)C1CCC(CN2C(=O)CC(*)C2=O)CC1; X2 = O=C(O)C1CCC(CN2C(=O)CC(*)C2=O)CC1; dPhg = N[C@@H](C(=O)O)c1ccccc1

Assays:
α5β1 = target: T1, α5β1 (Homo sapiens, UniProt P05556+P08648); test: Competitive integrin binding assay (isoDGR/STV-HRP) on α5β1-coated plates; settings: for ratio of integrin Ki/αvβ3 Ki (α5β1): number in parenthesis
T1 construct: purchased Immunological Sciences (Rome, Italy)
Method: (§1) A conjugate consisting of biotinylated acetyl-Ciso[…] (SEQ ID NO:36) peptide complexed with streptavidin-peroxidase conjugate (isoDGR/STV-HRP) was first prepared as described previously. […] Each mixture was then added to microtiter plates coated with integrins (αvβ3, αvβ5, αvβ6, […], or α5β1) and incubated for 2 h at room temperature. After washing, each well was incubated with 70 μl of chromogenic solution (o-phenylenediamine dihydrochloride) for 20 min, at room temperature. The chromogenic reaction was stopped by adding an equal volume of 1 N sulfuric acid. The absorbance at 490 nm was then measured using a microtiter plate reader.
(§2) The binding affinity and selectivity of each peptide for different integrins were then analyzed by competitive binding assay, using αvβ3-, αvβ5-, αvβ6-, αvβ8- and α5β1-coated plates and isoDGR/STV-HRP, an ac-isoDGR-2C/peroxidase complex, as competitor.

αvβ6 = target: T2, αvβ6 (Homo sapiens, UniProt P06756+P18564); test: Competitive integrin binding assay (isoDGR/STV-HRP) on αvβ6-coated plates; settings: for ratio of integrin Ki/αvβ3 Ki (αvβ6): number in parenthesis; for pKi: mean ± SE
T2 construct: purchased R&D System (Minneapolis, Minn.)
Method: as §1, §2

αvβ8 = target: T3, αvβ8 (Homo sapiens, UniProt P06756+P26012); test: Competitive integrin binding assay (isoDGR/STV-HRP) on αvβ8-coated plates; settings: for ratio of integrin Ki/αvβ3 Ki (αvβ8): number in parenthesis
T3 construct: purchased R&D System (Minneapolis, Minn.)
Method: as §1, §2

αvβ3 = target: T4, αvβ3 (Homo sapiens, UniProt P05106+P06756); test: Competitive integrin binding assay (isoDGR/STV-HRP) on αvβ3-coated plates; settings: for ratio of integrin Ki/αvβ3 Ki (αvβ3): number in parenthesis
T4 construct: purchased Immunological Sciences (Rome, Italy)
Method: as §1, §2

αvβ5 = target: T5, αvβ5 (Homo sapiens, UniProt P06756+P18084); test: Competitive integrin binding assay (isoDGR/STV-HRP) on αvβ5-coated plates; settings: for ratio of integrin Ki/αvβ3 Ki (αvβ5): number in parenthesis
T5 construct: purchased Immunological Sciences (Rome, Italy)
Method: as §1, §2

[1] = Asn deamidation of NGR peptides by mass spectrometry; type: physicochemical; settings: 37° C., 0.1 M ammonium bicarbonate buffer, pH 8.5
Method: Orbitrap-ESI mass spectrometry analysis of NGR#3 and NGR-2C at various time points after incubation at 37° C. in 0.1 M ammonium bicarbonate buffer (Ambic), pH 8.5. During the analyses the NGR#3 forms dimers. +0 (no deamidation), +0.5 (one deamidation/molecule) and +1 (two deamidations/molecule) correspond to the difference between found and expected molecular masses in daltons.
It is well known that NGR may undergo Asn deamidation generating isoDGR, an integrin binding motif. To assess whether the molecular scaffold of NGR might affect the deamidation rate we analyzed the molecular masses of NGR#3 and […] (SEQ ID NO:37) (NGR-2C) before and after incubation at 37° C. in 0.1 M ammonium bicarbonate buffer, pH 8.5 (AmBic) for various times. […] The extent of binding of heat-treated NGR-HSA was very similar to that obtained with isoDGR#3-HSA, i.e. a conjugate prepared using a similar peptide having isoAsp in place of Asn (FIG. 17B, right).

[2] = system: EA.hy926 endothelial cells; test: Endothelial cell adhesion to vitronectin-coated plates; type: cell-based, human; settings: EA.hy926, substance added to supernatant
Method: Endothelial cell (EA.hy926) adhesion to microtiter plates coated with human vitronectin was carried out as described ([25]). IsoDGR#1 and isoDGR#3 were added to the supernatant during cell adhesion. […] Mean±S.E (n=3).
Cell adhesion was quantified by spectrophotometric measurement (A570 nm).

N=C(N)NCCC[C@@H]1NC(=O)CNC(=O)C[C@@H](C(=O)O)NC(=O)[C@H](CS)NC(=O)[C@@H](c2ccccc2)NC(=O)CNC1=O [isoDGR#7, c(CisoDGRGphg)] (GRG[dPhg]CD-OH; lactam N-6)
ratio of integrin Ki/αvβ3 Ki (α5β1) (α5β1): (0.04) | ratio of integrin Ki/αvβ3 Ki (αvβ6) (αvβ6): (0.03) | ratio of integrin Ki/αvβ3 Ki (αvβ8) (αvβ8): (0.4) | ratio of integrin Ki/αvβ3 Ki (αvβ3) (αvβ3): (1) | ratio of integrin Ki/αvβ3 Ki (αvβ5) (αvβ5): (0.6)

N=C(N)NCCC[C@@H]1NC(=O)CNC(=O)C[C@@H](C(=O)O)NC(=O)CNC(=O)[C@H](CSC2CC(=O)N(CC3CCC(C(=O)O)CC3)C2=O)NC(=O)CNC1=O (stereo partly drawn) [isoDGR#1-P2] (GRGC(X2)GD-OH; lactam N-6)
ratio of integrin Ki/αvβ3 Ki (α5β1) (α5β1): (9.6) | ratio of integrin Ki/αvβ3 Ki (αvβ6) (αvβ6): (80) | ratio of integrin Ki/αvβ3 Ki (αvβ8) (αvβ8): (318) | ratio of integrin Ki/αvβ3 Ki (αvβ3) (αvβ3): (1) | ratio of integrin Ki/αvβ3 Ki (αvβ5) (αvβ5): (1.6)

N=C(N)NCCC[C@@H]1NC(=O)CNC(=O)C[C@@H](C(=O)O)NC(=O)CNC(=O)[C@H](CS)NC(=O)[C@@H](c2ccccc2)NC1=O [isoDGR#5, c(CGisoDGRphg)] (GR[dPhg]CGD-OH; lactam N-6)
ratio of integrin Ki/αvβ3 Ki (α5β1) (α5β1): (3.26) | ratio of integrin Ki/αvβ3 Ki (αvβ6) (αvβ6): (3.7) | ratio of integrin Ki/αvβ3 Ki (αvβ8) (αvβ8): (42) | ratio of integrin Ki/αvβ3 Ki (αvβ3) (αvβ3): (1) | ratio of integrin Ki/αvβ3 Ki (αvβ5) (αvβ5): (1.30)

CNGRCGVRY [NGR-2C, reference compound]
deamidation rate [1]: faster than that of NGR#3

N=C(N)NCCC[C@@H]1NC(=O)CNC(=O)C[C@@H](C(=O)O)NC(=O)[C@H](CS)NC(=O)CNC(=O)CNC1=O [isoDGR#3, c(CisoDGRGG)] (GRGGCD-OH; lactam N-6)
ratio of integrin Ki/αvβ3 Ki (α5β1) (α5β1): (0.5) | ratio of integrin Ki/αvβ3 Ki (αvβ6) (αvβ6): (1.3) | ratio of integrin Ki/αvβ3 Ki (αvβ8) (αvβ8): (1.2) | ratio of integrin Ki/αvβ3 Ki (αvβ3) (αvβ3): (1) | ratio of integrin Ki/αvβ3 Ki (αvβ5) (αvβ5): (1) | inhibition of endothelial cell adhesion to vitronectin [2]: could efficiently inhibit endothelial cell adhesion

N=C(N)NCCC[C@@H]1NC(=O)CNC(=O)C[C@@H](C(=O)O)NC(=O)[C@H](CSC2CC(=O)N(CC3CCC(C(=O)O)CC3)C2=O)NC(=O)CNC(=O)CNC1=O (stereo partly drawn) [isoDGR#3-P2] (GRGGC(X2)D-OH; lactam N-6)
pKi (αvβ6): 6.33 | ratio of integrin Ki/αvβ3 Ki (αvβ6) (αvβ6): (26) | pKi (αvβ8; mean ± SE): 6.37 | ratio of integrin Ki/αvβ3 Ki (αvβ8) (αvβ8): (24) | ratio of integrin Ki/αvβ3 Ki (αvβ3) (αvβ3): (1)

N=C(N)NCCC[C@@H]1NC(=O)CNC(=O)C[C@@H](C(=O)O)NC(=O)CNC(=O)[C@H](CSC2CC(=O)N(CC3CCC(C(N)=O)CC3)C2=O)NC(=O)CNC1=O (stereo partly drawn) [isoDGR#1-P1] (GRGC(X1)GD-OH; lactam N-6)
ratio of integrin Ki/αvβ3 Ki (α5β1) (α5β1): (8.6) | ratio of integrin Ki/αvβ3 Ki (αvβ6) (αvβ6): (17) | ratio of integrin Ki/αvβ3 Ki (αvβ8) (αvβ8): (160) | ratio of integrin Ki/αvβ3 Ki (αvβ3) (αvβ3): (1) | ratio of integrin Ki/αvβ3 Ki (αvβ5) (αvβ5): (1)^

*AV(0:1): sulfo-SMCC-activated avidin lacking the peptide [reference compound]
pKi (α5β1; mean ± SE): < 5.60 | pKi (αvβ6): < 5.60 | pKi (αvβ3; mean ± SE): < 5.60 | pKi (αvβ5; mean ± SE): < 5.60
